Laboratory results reported in patent US10722520B2, “Heterocyclic compounds and their use in preventing or treating bacterial infections” (MUTABILIS, priority 2016, dated 2020).

Tests used:
[1] = target: OXA-11 (Pseudomonas aeruginosa, UniProt Q06778); conditions: read-out: IC50 β-lactamase OXA-11; class (D); nitrocefin 200 μM, 30-min pre-incubation, enzyme 1.2 nM
[2] = target: CTX-M-15 (Escherichia coli, UniProt Q9EXV5); conditions: read-out: IC50 β-lactamase CTX-M-15; class (A); nitrocefin 200 μM, 30-min pre-incubation, enzyme 0.4 nM
Chain of CTX-M-15 (Q9EXV5 29-291, species assumed): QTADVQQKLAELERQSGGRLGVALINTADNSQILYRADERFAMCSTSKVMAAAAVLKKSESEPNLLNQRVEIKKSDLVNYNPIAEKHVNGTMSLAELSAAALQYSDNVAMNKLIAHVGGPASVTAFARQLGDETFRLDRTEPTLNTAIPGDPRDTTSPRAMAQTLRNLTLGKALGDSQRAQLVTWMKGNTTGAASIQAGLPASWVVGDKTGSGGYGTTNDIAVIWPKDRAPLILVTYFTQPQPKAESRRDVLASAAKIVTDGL

[3] = target: CMY-37 (Citrobacter freundii, UniProt P05193); conditions: read-out: IC50 β-lactamase CMY-37; class (C); nitrocefin 200 μM, 30-min pre-incubation, enzyme 0.2 nM
Chain of CMY-37 (P05193 21-381 limits assumed): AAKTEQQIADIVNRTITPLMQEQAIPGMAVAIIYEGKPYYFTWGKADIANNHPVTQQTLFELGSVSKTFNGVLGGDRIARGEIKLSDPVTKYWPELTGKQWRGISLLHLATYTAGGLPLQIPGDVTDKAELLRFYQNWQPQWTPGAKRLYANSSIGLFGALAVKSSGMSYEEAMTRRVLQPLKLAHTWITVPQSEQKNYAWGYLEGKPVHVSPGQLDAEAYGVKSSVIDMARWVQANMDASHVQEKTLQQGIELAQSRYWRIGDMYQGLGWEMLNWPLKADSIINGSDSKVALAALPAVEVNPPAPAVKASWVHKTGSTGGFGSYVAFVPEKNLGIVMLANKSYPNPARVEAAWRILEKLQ

[4] = target: SHV-1 (Klebsiella pneumoniae, UniProt P0AD64); conditions: read-out: IC50 β-lactamase SHV-1; class (A); nitrocefin 200 μM, 30-min pre-incubation, enzyme 0.075 nM
Chain of SHV-1 (P0AD64 22-286): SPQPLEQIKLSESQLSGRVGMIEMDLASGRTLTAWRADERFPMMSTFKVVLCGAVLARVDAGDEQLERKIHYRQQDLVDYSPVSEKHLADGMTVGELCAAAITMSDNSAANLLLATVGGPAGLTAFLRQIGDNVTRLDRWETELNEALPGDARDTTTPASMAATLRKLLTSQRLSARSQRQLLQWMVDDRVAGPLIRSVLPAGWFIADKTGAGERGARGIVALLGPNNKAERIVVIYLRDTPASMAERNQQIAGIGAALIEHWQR

[5] = system: E. coli RGN238; test: MIC of ceftazidime (CAZ) at fixed concentration of compound (synergy), broth microdilution; type: cell-based; conditions: MIC of ceftazidime with compound fixed at 4 μg/mL; strain RGN238 (E. coli)
In short: (§1)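 Log-phase bacteria were diluted to a final 5×10^5 cfu/mL in cation-adjusted Mueller-Hinton broth and incubated 16-20 h at 35° C in ambient air. MIC was taken as the lowest concentration preventing growth, judged visually.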

[6] = system: E. coli UFR61O; test: as above; type: cell-based; conditions: MIC of ceftazidime with compound fixed at 4 μg/mL; strain UFR61O (E. coli)
In short: as §1

[7] = system: E. coli 190317; test: as above; type: cell-based; conditions: MIC of ceftazidime with compound fixed at 4 μg/mL; strain 190317 (E. coli)
In short: as §1

[8] = system: E. cloacae 260508; test: as above; type: cell-based; conditions: MIC of ceftazidime with compound fixed at 4 μg/mL; strain 260508 (E. cloacae)
In short: as §1

[9] = system: E. coli UFR39; test: as above; type: cell-based; conditions: MIC of ceftazidime with compound fixed at 4 μg/mL; strain UFR39 (E. coli)
In short: as §1

[10] = system: P. aeruginosa CIP107051; test: as above; type: cell-based; conditions: MIC of ceftazidime with compound fixed at 4 μg/mL; strain CIP107051 (P. aeruginosa)
In short: as §1

[11] = system: E. coli UFR41; test: as above; type: cell-based; conditions: MIC of ceftazidime with compound fixed at 4 μg/mL; strain UFR41 (E. coli)
In short: as §1

[12] = system: K. pneumoniae 6299; test: as above; type: cell-based; conditions: MIC of ceftazidime with compound fixed at 4 μg/mL; strain 6299 (K. pneumoniae)
In short: as §1

[13] = system: K. pneumoniae UFR77; test: as above; type: cell-based; conditions: MIC of ceftazidime with compound fixed at 4 μg/mL; strain UFR77 (K. pneumoniae)
In short: as §1

[14] = system: E. coli 131119; test: as above; type: cell-based; conditions: MIC of ceftazidime with compound fixed at 4 μg/mL; strain 131119 (E. coli)
In short: as §1

[15] = system: K. pneumoniae UFR68; test: as above; type: cell-based; conditions: MIC of ceftazidime with compound fixed at 4 μg/mL; strain UFR68 (K. pneumoniae)
In short: as §1

[16] = system: K. pneumoniae 200047; test: as above; type: cell-based; conditions: MIC of ceftazidime with compound fixed at 4 μg/mL; strain 200047 (K. pneumoniae)
In short: as §1

[17] = system: K. pneumoniae BAA-1898; test: as above; type: cell-based; conditions: MIC of ceftazidime with compound fixed at 4 μg/mL; strain BAA-1898 (K. pneumoniae)
In short: as §1

[18] = system: E. cloacae UFR85; test: as above; type: cell-based; conditions: MIC of ceftazidime with compound fixed at 4 μg/mL; strain UFR85 (E. cloacae)
In short: as §1

[19] = system: K. oxytoca UFR21; test: as above; type: cell-based; conditions: MIC of ceftazidime with compound fixed at 4 μg/mL; strain UFR21 (K. oxytoca)
In short: as §1

[20] = system: E. coli UFR18; test: as above; type: cell-based; conditions: MIC of ceftazidime with compound fixed at 4 μg/mL; strain UFR18 (E. coli)
In short: as §1

[21] = system: E. coli UFR32; test: as above; type: cell-based; conditions: MIC of ceftazidime with compound fixed at 4 μg/mL; strain UFR32 (E. coli)
In short: as §1

[22] = system: E. cloacae P99; test: as above; type: cell-based; conditions: MIC of ceftazidime with compound fixed at 4 μg/mL; strain P99 (E. cloacae)
In short: as §1

[23] = system: K. pneumoniae 160143; test: as above; type: cell-based; conditions: MIC of ceftazidime with compound fixed at 4 μg/mL; strain 160143 (K. pneumoniae)
In short: as §1

[24] = system: E. coli UFR74; test: as above; type: cell-based; conditions: MIC of ceftazidime with compound fixed at 4 μg/mL; strain UFR74 (E. coli)
In short: as §1

[25] = system: E. cloacae UFR51; test: as above; type: cell-based; conditions: MIC of ceftazidime with compound fixed at 4 μg/mL; strain UFR51 (E. cloacae)
In short: as §1

[26] = system: E. cloacae UFR70; test: as above; type: cell-based; conditions: MIC of ceftazidime with compound fixed at 4 μg/mL; strain UFR70 (E. cloacae)
In short: as §1

[27] = system: K. pneumoniae UFR24; test: as above; type: cell-based; conditions: MIC of ceftazidime with compound fixed at 4 μg/mL; strain UFR24 (K. pneumoniae)
In short: as §1

[28] = target: OXA-48 (Klebsiella pneumoniae, UniProt Q6XEC0); conditions: read-out: IC50 β-lactamase OXA-48; class (D); nitrocefin 200 μM, 30-min pre-incubation, enzyme 0.3 nM
Chain of OXA-48 (Q6XEC0 23-265, looked up, species assumed): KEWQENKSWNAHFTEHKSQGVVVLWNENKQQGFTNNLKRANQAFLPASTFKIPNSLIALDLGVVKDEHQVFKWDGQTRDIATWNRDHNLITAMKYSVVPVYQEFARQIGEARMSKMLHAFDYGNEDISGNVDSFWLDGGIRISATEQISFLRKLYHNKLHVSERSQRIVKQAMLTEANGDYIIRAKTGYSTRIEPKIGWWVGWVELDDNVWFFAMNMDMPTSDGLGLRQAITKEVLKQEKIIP

[29] = system: E. coli RGN238; test: microbe, parasite or virus in culture; type: cell-based; conditions: strain RGN238: E. coli; OXA-1
Protocol: Log phase bacterial suspensions were adjusted to a final density of 5×10^5 cfu/mL in cation-adjusted Mueller-Hinton broth (Becton-Dickinson) and added to each well (98 μL). Microplates were incubated for 16-20 h at 35° C. in ambient air. The MIC of the compounds was defined as the lowest concentration of said compounds that prevented bacterial growth as read by visual inspection.

Chain of OXA-11 (Q06778 21-266): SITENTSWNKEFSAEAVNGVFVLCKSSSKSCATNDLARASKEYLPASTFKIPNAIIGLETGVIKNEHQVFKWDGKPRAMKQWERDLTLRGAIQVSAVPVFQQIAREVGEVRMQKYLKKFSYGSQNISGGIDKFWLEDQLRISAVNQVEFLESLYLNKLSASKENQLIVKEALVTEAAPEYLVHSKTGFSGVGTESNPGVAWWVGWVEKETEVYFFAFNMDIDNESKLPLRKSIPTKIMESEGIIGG

Compound `O=C1N2CC(n3ccnn3)=CC(C2)N1OS(=O)(=O)[O-].[Na+]` (centres unmarked) [Example 2, sodium [7-oxo-3-(triazol-1-yl)-1,6-diazabicyclo[3.2.1]oct-3-en-6-yl]sulfate] has an IC50 [1] of 40 nM, an IC50 [2] of 0.67 nM and an IC50 [3] of 31 nM. The IC50 [4] was 4 nM, the “MIC combination of CAZ and compounds of the invention at 4 μg/mL” value (“MIC combination” for short) [5] was less than 0.25 and the “MIC combination” value [6] was less than 0.25. The “MIC combination” value [7] was less than 0.25, the “MIC combination” value [8] was less than 0.25 and the “MIC combination” value [9] was less than 0.25. For the same compound, the “MIC combination” value [10] was 4, the “MIC combination” value [11] was less than 0.25 and the “MIC combination” value [12] was less than 0.25. The “MIC combination” value [13] was less than 0.25, the “MIC combination” value [14] was less than 0.25 and the “MIC combination” value [15] was less than 0.25. The “MIC combination” value [16] was less than 0.25, the “MIC combination” value [17] was less than 0.25 and the “MIC combination” value [18] was less than 0.25. The “MIC combination” value [19] was less than 0.25, the “MIC combination” value [20] was less than 0.25 and the “MIC combination” value [21] was less than 0.25. For the same compound, the “MIC combination” value [22] was less than 0.25, the “MIC combination” value [23] was less than 0.25 and the “MIC combination” value [24] was less than 0.25. For the same compound, the “MIC combination” value [25] was less than 0.25, the “MIC combination” value [26] was less than 0.25 and the “MIC combination” value [27] was no more than 0.25. The IC50 [28] was 0.59 nM and the “MIC compounds of the invention alone” value [29] was 2 µg/mL.
